Measurements reported in patent publication US20260285850A1, “SUBSTITUTED OXAZOLIDINONES AND IMIDAZOLINONES AS HERBICIDES” (FMC CORPORATION, priority 2023, published 2026).

Columns and labels:
Assay type in all cases: in vivo
[1] = system: barnyardgrass (Echinochloa crus-galli); experiment: Test A preemergence soil spray, visual injury rating 0-100; details: 10 days, 0 = no effect, 100 = complete control; for Barnyardgrass plant response rating (0-100): 31 g ai/ha; for Barnyardgrass plant response rating (0 to 100 scale): 125 g ai/ha
Method in brief: (§1)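 Visual injury, scored 0-100 (100 = complete control) against untreated plants, 10 days after greenhouse treatment. Test chemicals in surfactant-containing non-phytotoxic solvent were applied in loam soil and sand, as a preemergence soil spray on seeds or postemergence to plants at the one- to two-leaf stage.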

[2] = system: blackgrass (Alopecurus myosuroides); experiment: as above; details: 10 days, 0 = no effect, 100 = complete control; for Blackgrass plant response rating (0-100): 31 g ai/ha; for Blackgrass plant response rating (0 to 100 scale): 125 g ai/ha
Method in brief: as §1

corn (Zea mays) [3] = experiment: as above; details: 10 days, 0 = no effect, 100 = complete control; for Corn plant response rating (0-100): 31 g ai/ha; for Corn plant response rating (0 to 100 scale): 125 g ai/ha
Method in brief: as §1

[4] = system: green foxtail (Setaria viridis); experiment: as above; details: 10 days, 0 = no effect, 100 = complete control; for Foxtail, Green plant response rating (0-100): 31 g ai/ha; for Foxtail, Green plant response rating (0 to 100 scale): 125 g ai/ha
Method in brief: as §1

kochia (Bassia scoparia) [5] = experiment: as above; details: 10 days, 0 = no effect, 100 = complete control; for Kochia plant response rating (0-100): 31 g ai/ha; for Kochia plant response rating (0 to 100 scale): 125 g ai/ha
Method in brief: as §1

[6] = system: oat, wild (wild oat, Avena fatua); experiment: as above; details: 10 days, 0 = no effect, 100 = complete control; for Oat, Wild plant response rating (0-100): 31 g ai/ha; for Oat, Wild plant response rating (0 to 100 scale): 125 g ai/ha
Method in brief: as §1

[7] = system: palmer (palmer amaranth, palmer pigweed, Amaranthus palmeri); experiment: as above; details: 10 days, 0 = no effect, 100 = complete control; for Amaranth, Palmer plant response rating (0-100): 31 g ai/ha; for Amaranth, Palmer plant response rating (0 to 100 scale): 125 g ai/ha
Method in brief: as §1

[8] = system: ragweed (common ragweed, Ambrosia artemisiifolia); experiment: as above; details: 10 days, 0 = no effect, 100 = complete control; for Ragweed plant response rating (0-100): 31 g ai/ha; for Ragweed plant response rating (0 to 100 scale): 125 g ai/ha
Method in brief: as §1

[9] = system: ryegrass, Italian (italian ryegrass, Lolium multiflorum); experiment: as above; details: 10 days, 0 = no effect, 100 = complete control; for Ryegrass, Italian plant response rating (0-100): 31 g ai/ha; for Ryegrass, Italian plant response rating (0 to 100 scale): 125 g ai/ha
Method in brief: as §1

soybean (Glycine max) [10] = experiment: as above; details: 10 days, 0 = no effect, 100 = complete control; for Soybean plant response rating (0-100): 31 g ai/ha; for Soybean plant response rating (0 to 100 scale): 125 g ai/ha
Method in brief: as §1

[11] = system: wheat (Triticum aestivum); experiment: as above; details: 10 days, 0 = no effect, 100 = complete control; for Wheat plant response rating (0-100): 31 g ai/ha; for Wheat plant response rating (0 to 100 scale): 125 g ai/ha
Method in brief: as §1

[12] = system: barnyardgrass (Echinochloa crus-galli); experiment: Test A postemergence application, visual injury rating 0-100; details: for Barnyardgrass plant response rating (0 to 100 scale): Postemergence
Method in brief: as §1

[13] = system: blackgrass (Alopecurus myosuroides); experiment: as above; details: for Blackgrass plant response rating (0 to 100 scale): Postemergence
Method in brief: as §1

corn (Zea mays) [14] = experiment: as above; details: for Corn plant response rating (0 to 100 scale): Postemergence
Method in brief: as §1

[15] = system: galium (catchweed bedstraw, Galium aparine); experiment: as above; details: for Galium plant response rating (0 to 100 scale): Postemergence
Method in brief: as §1

[16] = system: green foxtail (Setaria viridis); experiment: as above; details: for Foxtail, Green plant response rating (0 to 100 scale): Postemergence
Method in brief: as §1

[17] = system: horseweed (Erigeron canadensis); experiment: as above; details: for Horseweed plant response rating (0 to 100 scale): Postemergence
Method in brief: as §1

kochia (Bassia scoparia) [18] = experiment: as above; details: for Kochia plant response rating (0 to 100 scale): Postemergence
Method in brief: as §1

[19] = system: oat, wild (wild oat, Avena fatua); experiment: as above; details: for Oat, Wild plant response rating (0 to 100 scale): Postemergence
Method in brief: as §1

[20] = system: palmer (palmer amaranth, palmer pigweed, Amaranthus palmeri); experiment: as above; details: for Amaranth, Palmer / Pigweed, Palmer plant response rating (0 to 100 scale): Postemergence
Method in brief: as §1

[21] = system: ragweed (common ragweed, Ambrosia artemisiifolia); experiment: as above; details: for Ragweed plant response rating (0 to 100 scale): Postemergence
Method in brief: as §1

[22] = system: ryegrass, Italian (italian ryegrass, Lolium multiflorum); experiment: as above; details: for Ryegrass, Italian plant response rating (0 to 100 scale): Postemergence
Method in brief: as §1

soybean (Glycine max) [23] = experiment: as above; details: for Soybean plant response rating (0 to 100 scale): Postemergence
Method in brief: as §1

[24] = system: wheat (Triticum aestivum); experiment: as above; details: for Wheat plant response rating (0 to 100 scale): Postemergence
Method in brief: as §1

[25] = system: barnyardgrass (Echinochloa crusgalli); experiment: Test B flooded paddy test, visual plant response rating 0-100; details: 250 g ai/ha, Flood, applied to paddy water, evaluated after 13 days
Method in brief: (§2)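 Visual scores versus untreated controls were recorded 13 days after treatment of greenhouse-held plants. At the 2-leaf stage, pots were flooded 3 cm above the soil surface and compounds added straight to the water.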

[26] = system: ducksalad (Heteranthera limosa); experiment: as above; details: 250 g ai/ha, Flood, applied to paddy water, evaluated after 13 days
Method in brief: as §2

rice (Oryza sativa) = experiment: as above; details: 250 g ai/ha, Flood, applied to paddy water, evaluated after 13 days
Method in brief: as §2

[27] = system: sedge, umbrella (small-flower umbrella sedge, Cyperus difformis); experiment: as above; details: 250 g ai/ha, Flood, applied to paddy water, evaluated after 13 days
Method in brief: as §2

[28] = 31 g ai/ha, postemergence, 10 days, 0 = no effect, 100 = complete control
[29] = 125 g ai/ha, 10 days, 0 is no effect, 100 is complete control
[30] = 31 g ai/ha, greenhouse 10 days, 0 no effect, 100 complete control

CSCCOC(=O)C1=CCC(NC(=O)C2(C)CN(c3cc(F)cc(F)c3)C(=O)O2)C1 (centres unmarked) [Compound 23]
70: Foxtail, Green plant response rating (0-100) [4] | Ragweed plant response rating (0 to 100 scale) [8] | Soybean plant response rating (0 to 100 scale) (soybean (Glycine max) [10]) | Ragweed plant response rating (0 to 100 scale) [21, 29] | Ryegrass, Italian plant response rating (0 to 100 scale) [22, 29] | Plant response rating, Ducksalad (0 to 100 scale, 0 is no effect and 100 is complete control) [26]
60: Barnyardgrass plant response rating (0-100) [1] | Oat, Wild plant response rating (0 to 100 scale) [6] | Ragweed plant response rating (0-100) [21, 28]
90: Blackgrass plant response rating (0 to 100 scale) [2] | Kochia plant response rating (0 to 100 scale) (kochia (Bassia scoparia) [5]) | Amaranth, Palmer plant response rating (0 to 100 scale) [7] | Ryegrass, Italian plant response rating (0 to 100 scale) [9] | Wheat plant response rating (0 to 100 scale) [11] | Blackgrass plant response rating (0-100) [13, 28] | Galium plant response rating (0 to 100 scale) [15, 29] | Foxtail, Green plant response rating (0-100) [16, 28] | Foxtail, Green plant response rating (0 to 100 scale) [16, 29] | Horseweed plant response rating (0 to 100 scale) [17, 29] | Kochia plant response rating (0 to 100 scale) (kochia (Bassia scoparia) [18]; [29]) | Oat, Wild plant response rating (0-100) [19, 28] | Amaranth, Palmer / Pigweed, Palmer plant response rating (0 to 100 scale) [20, 29] | Soybean plant response rating (0 to 100 scale) (soybean (Glycine max) [23]; [29]) | Wheat plant response rating (0-100) [24, 28] | Wheat plant response rating (0 to 100 scale) [24, 29]
100: Barnyardgrass plant response rating (0 to 100 scale) [1] | Foxtail, Green plant response rating (0 to 100 scale) [4] | Barnyardgrass plant response rating (0-100) [12, 28] | Barnyardgrass plant response rating (0 to 100 scale) [12, 29] | Blackgrass plant response rating (0 to 100 scale) [13, 29] | Corn plant response rating (0-100) (corn (Zea mays) [14]; [28]) | Corn plant response rating (0 to 100 scale) (corn (Zea mays) [14]; [29]) | Oat, Wild plant response rating (0 to 100 scale) [19, 29]
0: Kochia plant response rating (0-100) (kochia (Bassia scoparia) [5]) | Ragweed plant response rating (0-100) [8]
80: Blackgrass plant response rating (0-100) [2] | Corn plant response rating (0 to 100 scale) (corn (Zea mays) [3]) | Ryegrass, Italian plant response rating (0-100) [9] | Wheat plant response rating (0-100) [11] | Galium plant response rating (0-100) [15, 28] | Horseweed plant response rating (0-100) [17, 28] | Kochia plant response rating (0-100) (kochia (Bassia scoparia) [18]; [28]) | Amaranth, Palmer plant response rating (0-100) [20, 28] | Ryegrass, Italian plant response rating (0-100) [22, 28] | Soybean plant response rating (0-100) (soybean (Glycine max) [23]; [28])
95: Plant response rating, Barnyardgrass (0 to 100 scale, 0 is no effect and 100 is complete control) [25]
86: Plant response rating, Sedge, Umbrella (0 to 100 scale, 0 is no effect and 100 is complete control) [27]
20: Oat, Wild plant response rating (0-100) [6]
85: Plant response rating, Rice (0 to 100 scale, 0 is no effect and 100 is complete control) (rice (Oryza sativa))
10: Soybean plant response rating (0-100) (soybean (Glycine max) [10])
30: Corn plant response rating (0-100) (corn (Zea mays) [3]) | Amaranth, Palmer plant response rating (0-100) [7]

CC1(C(=O)NC2C=CC(C(=O)OCC(F)(F)F)C2)CN(c2cc(Cl)cc(Cl)c2)C(=O)O1 (centres unmarked) [Compound 64]
70: Blackgrass plant response rating (0 to 100 scale) [2] | Foxtail, Green plant response rating (0-100) [4]
100: Amaranth, Palmer plant response rating (0-100) [7] | Amaranth, Palmer plant response rating (0 to 100 scale) [7] | Barnyardgrass plant response rating (0 to 100 scale) [12, 30] | Barnyardgrass plant response rating (0 to 100 scale) [12, 29] | Corn plant response rating (0 to 100 scale) (corn (Zea mays) [14]; [29])
15: Plant response rating, Rice (0 to 100 scale, 0 is no effect and 100 is complete control) (rice (Oryza sativa))
50: Kochia plant response rating (0-100) (kochia (Bassia scoparia) [5]) | Oat, Wild plant response rating (0 to 100 scale) [6] | Ryegrass, Italian plant response rating (0-100) [9] | Horseweed plant response rating (0 to 100 scale) [17, 30] | Ragweed plant response rating (0 to 100 scale) [21, 30] | Plant response rating, Barnyardgrass (0 to 100 scale, 0 is no effect and 100 is complete control) [25]
75: Plant response rating, Sedge, Umbrella (0 to 100 scale, 0 is no effect and 100 is complete control) [27]
80: Barnyardgrass plant response rating (0-100) [1] | Corn plant response rating (0 to 100 scale) (corn (Zea mays) [3]) | Ragweed plant response rating (0 to 100 scale) [8] | Galium plant response rating (0 to 100 scale) [15, 30] | Galium plant response rating (0 to 100 scale) [15, 29] | Horseweed plant response rating (0 to 100 scale) [17, 29] | Kochia plant response rating (0 to 100 scale) (kochia (Bassia scoparia) [18]; [30]) | Kochia plant response rating (0 to 100 scale) (kochia (Bassia scoparia) [18]; [29]) | Ragweed plant response rating (0 to 100 scale) [21, 29] | Ryegrass, Italian plant response rating (0 to 100 scale) [22, 30] | Soybean plant response rating (0 to 100 scale) (soybean (Glycine max) [23]; [30])
20: Blackgrass plant response rating (0-100) [2] | Oat, Wild plant response rating (0-100) [6]
40: Soybean plant response rating (0 to 100 scale) (soybean (Glycine max) [10])
0: Corn plant response rating (0-100) (corn (Zea mays) [3]) | Ragweed plant response rating (0-100) [8] | Soybean plant response rating (0-100) (soybean (Glycine max) [10])
90: Barnyardgrass plant response rating (0 to 100 scale) [1] | Foxtail, Green plant response rating (0 to 100 scale) [4] | Kochia plant response rating (0 to 100 scale) (kochia (Bassia scoparia) [5]) | Ryegrass, Italian plant response rating (0 to 100 scale) [9] | Wheat plant response rating (0 to 100 scale) [11] | Blackgrass plant response rating (0 to 100 scale) [13, 30] | Blackgrass plant response rating (0 to 100 scale) [13, 29] | Corn plant response rating (0 to 100 scale) (corn (Zea mays) [14]; [30]) | Foxtail, Green plant response rating (0 to 100 scale) [16, 30] | Foxtail, Green plant response rating (0 to 100 scale) [16, 29] | Oat, Wild plant response rating (0 to 100 scale) [19, 30] | Oat, Wild plant response rating (0 to 100 scale) [19, 29] | Amaranth, Palmer / Pigweed, Palmer plant response rating (0 to 100 scale) [20, 30] | Amaranth, Palmer / Pigweed, Palmer plant response rating (0 to 100 scale) [20, 29] | Ryegrass, Italian plant response rating (0 to 100 scale) [22, 29] | Soybean plant response rating (0 to 100 scale) (soybean (Glycine max) [23]; [29]) | Wheat plant response rating (0 to 100 scale) [24, 30] | Wheat plant response rating (0 to 100 scale) [24, 29] | Plant response rating, Ducksalad (0 to 100 scale, 0 is no effect and 100 is complete control) [26]
60: Wheat plant response rating (0-100) [11]
